Data as given in patent US20250025438A1, “Derivative of aspartic acid and use thereof in treatment of metabolic diseases such as hepatic fibrosis and non-alcoholic hepatitis” (SHENZHEN JINGTAI TECHNOLOGY CO., LTD., priority 2021, published 2025).
Where a SMILES comes first, the peptide text is derived from it.

What was measured:
Format in all cases: cell-based
COL1A2 = test: In vitro efficacy in semi-activated LX2 cells, qPCR: COL1A2; details: Q-PCR; for inhibition at 50 µM: Homo sapiens, LX-2, 48 hours, read-out: COL1A2 mRNA inhibition rate
Protocol: (§1) Test compounds were added to the LX-2 cells respectively, and total RNA in the cells was extracted 48 hours later. This experiment was performed strictly in accordance with the instructions of the Total RNA Kit. The steps were as follows (note: this experiment was performed on ice throughout the entire process, and special RNase-free tips were used throughout the entire process): • 1) The 12-well cell culture plate was taken out from the incubator, the cell culture medium was discarded, the cells were washed twice with 1 mL of 1×PBS, and a negative pressure suction device was used to fully remove PBS; • 2) 350 μL of TRK Lysis Buffer mixture/well was prepared as needed (mixture preparation method: 1 mL of TRKLysis Buffer+20 μL of β-mercaptoethanol), vortexed and mixed well. 350 μL was added to each well of the 12-well cell culture plate, and allowed to stand at room temperature for 5 minutes to fully lyse the cells; • 3) 70% ethanol/well was prepared as needed, vortexed and mixed well. 350 μL was added to each well of the 12-well cell culture plate, mixed well by shaking, and transferred to the spin column (spin column+collection tube were assembled); • 4) Centrifugation was performed at 4° C., 12000 g for 60 sec. The waste liquid was discarded after centrifugation, while the spin column was kept; • 5) 500 μL of RNA Wash Buffer I was added, centrifuged at 4° C., 12000 g for 60 sec, the waste liquid was discarded after centrifugation, and the collection column was kept; • 6) 500 μL of RNA Wash Buffer II (confirmed that ethanol had been added) was added, centrifuged at 4° C., 12000 g for 60 sec, the waste liquid was discarded after centrifugation, and the collection column was kept; • 7) step 6) was repeated once again, centrifugation was performed at 4° C., 12000 g for 90 sec, the waste liquid was discarded after centrifugation, and the collection column was kept; • 8) Centrifugation was performed at 4° C., 12000 g for 120 sec to ensure that the spin column was fully dried; • 9) The dried spin column was inserted into a new 1.5 mL EP tube, and 30 μL of DEPC water was added to the membrane in the center of the spin column. It should be careful not to touch the EP tube cover in this step. It was allowed to stand at room temperature for 5 minutes to ensure that the RNA was fully dissolved in DEPC water. Centrifugation was performed at 4° C., 12000 g for 60 sec, and the EP tube was kept; • 10) NanoDrop ultra-micro-volume spectrophotometer was used to detect RNA concentration;
(§2) 5.2 Reverse transcription of RNA into cDNA: According to the instructions of PrimeScript™ RT reagent Kit (Perfect Real Time), the specific experimental steps were as follows:
(§3) 5.3 Q-PCR detection of target gene expression: According to the instructions of Power SYBR® Green PCR Master Mix, the specific operations were as follows:
(§4) After the reaction was completed, the amplification curve and dissolution curve of Q-PCR were confirmed, and the relative quantification method ([…]) was used to perform data analysis on the experimental results.
(§5) LX2 cells were passaged and plated normally. After adherent growth for 12 hours, 50 µM of the test compound was added. After 48 hours, the cells were collected, total RNA was extracted, and Q-PCR was used to detect the changes in the mRNA expression levels of liver fibrosis-related genes (ACTA2 encoding α-SMA, COL1A1 and COLIA2 encoding collagen I, COL3A1 encoding collagen III, SMAD3 encoding Smad3) and inflammation-related genes (IL1β encoding IL-1β, TNFα encoding TNFα) (for specific methods, see 5. Q-PCR detection of target gene expression as described above). α-SMA was a marker of hepatic stellate cell activation, and collagen I and collagen III were the main components of extracellular matrix deposition.

TNF-α = test: In vitro efficacy in semi-activated LX2 cells, qPCR: TNF-α; details: Q-PCR; for inhibition at 50 µM: Homo sapiens, LX-2, 48 hours, read-out: TNF-α mRNA inhibition rate
Protocol: as §1, §2, §3, §4, §5

COL3A1 = test: In vitro efficacy in semi-activated LX2 cells, qPCR: COL3A1; details: 48 hours, Q-PCR; for inhibition at 50 µM: Homo sapiens, LX-2, 50 µM, read-out: COL3A1 mRNA inhibition rate
Protocol: as §1, §2, §3, §4
as §5, with “After adherent growth for 12 hours, 50 µM of the test compound was added.” left out

α-SMA = test: In vitro efficacy in semi-activated LX2 cells, qPCR: α-SMA; details: 48 hours, Q-PCR; for inhibition at 50 µM: read-out: α-SMA mRNA inhibition rate; for inhibition of the expression of α-SMA at the mRNA level: Table 2
Protocol: as §1, §2, §3, §4
as §5, with “After adherent growth for 12 hours, 50 µM of the test compound was added.” left out

IL-1β = test: In vitro efficacy in semi-activated LX2 cells, qPCR: IL-1β; details: 48 hours, Q-PCR; for inhibition at 50 µM: Homo sapiens, LX-2, 50 µM, read-out: IL-1β mRNA inhibition rate
Protocol: as §1, §2, §3, §4
as §5, with “After adherent growth for 12 hours, 50 µM of the test compound was added.” left out

Smad3 = test: In vitro efficacy in semi-activated LX2 cells, qPCR: Smad3; details: 48 hours, Q-PCR; for inhibition of the expression of Smad3 at the mRNA level: Table 2; for inhibition at 50 µM: Homo sapiens, LX-2, 50 µM, read-out: Smad3 mRNA inhibition rate
Protocol: as §1, §2, §3, §4
as §5, with “After adherent growth for 12 hours, 50 µM of the test compound was added.” left out

[1] = system: collagen I and collagen III; test: Semi-activated LX2 cells, qPCR: collagen I and collagen III at the mRNA level; details: 48 hours, Q-PCR, Table 2
Protocol: as §1, §3
as §5, with “deposition. […]” for “deposition.”

[2] = system: liver fibrosis-related genes; test: Semi-activated LX2 cells, qPCR: liver fibrosis-related genes overall; details: 48 hours, Q-PCR, Table 2
Protocol: as §1, §3, §5

COL1A1 = test: In vitro efficacy in semi-activated LX2 cells, qPCR: COL1A1; details: 48 hours, Q-PCR; for inhibition at 50 µM: Homo sapiens, LX-2, 50 µM, read-out: COL1A1 mRNA inhibition rate
Protocol: as §1, §2, §3, §4
as §5, with “After adherent growth for 12 hours, 50 µM of the test compound was added.” left out

Row | SMILES | inhibition at 50 µM (COL1A2) [%] | inhibition at 50 µM (TNF-α) [%] | inhibition at 50 µM (COL3A1) [%] | inhibition at 50 µM (α-SMA; 50 µM) [%] | inhibition at 50 µM (IL-1β) [%] | inhibition of the expression of Smad3 at the mRNA level (Smad3) | inhibition at 50 µM (Smad3) [%] | inhibition of the expression of α-SMA at the mRNA level (α-SMA) | inhibition of the expression of collagen I and collagen III at the mRNA level [1] | inhibition of the mRNA expression levels of liver fibrosis-related genes (overall) [2] | inhibition at 50 µM (COL1A1) [%] | COL1A2 mRNA inhibition rate (COL1A2; 50 µM, 48 hours) | Smad3 mRNA inhibition rate (Smad3; 50 µM) | α-SMA mRNA inhibition rate (α-SMA; 50 µM) | TNF-α mRNA inhibition rate (TNF-α; 50 µM, 48 hours) | COL3A1 mRNA inhibition rate (COL3A1; 50 µM) | COL1A1 mRNA inhibition rate (COL1A1; 50 µM) | IL-1β mRNA inhibition rate (IL-1β; 50 µM)
1 | N[C@@H](CC(=O)O)C(=O)N[C@@H](Cc1ccccc1)C(=O)O [Compound 39] (H-Asp-Phe-OH) | 1 to 10 | 1 to 10 | 1 to 10 |  |  |  |  |  |  |  |  |  |  |  |  |  |  | 
2 | CC(C)(C)OC(=O)C[C@H](N)C(=O)O [Compound 13] | 1 to 10 | 1 to 10 |  | 1 to 10 | 1 to 10 |  |  |  |  |  |  |  |  |  |  |  |  | 
3 | COC(=O)[C@H](CC(=O)O)NC(=O)OC(C)(C)C [Compound 26] | 1 to 10 | 10 to 25 | 25 to 50 | 10 to 25 |  | could inhibit | 10 to 25 | could inhibit | could inhibit | stronger effects | 25 to 50 |  |  |  |  |  |  | 
4 | CNC(=O)C[C@H](N)C(=O)O [Compound 33] | 1 to 10 |  | 1 to 10 | 25 to 50 | 1 to 10 |  | 1 to 10 | could inhibit | could inhibit |  | 25 to 50 |  |  |  |  |  |  | 
5 | C=CCOC(=O)[C@H](CC(=O)O)NC(=O)OCC1c2ccccc2-c2ccccc21 [Compound 10] | 1 to 10 | 10 to 25 | 10 to 25 | 1 to 10 | 1 to 10 |  | 1 to 10 |  | could inhibit |  | 1 to 10 |  |  |  |  |  |  | 
6 | NCC(=O)N[C@@H](CC(=O)O)C(=O)O [Compound 28] (H-Gly-Asp-OH) | 1 to 10 | 1 to 10 | 10 to 25 | 10 to 25 | 10 to 25 | could inhibit | 10 to 25 | could inhibit | could inhibit |  | 10 to 25 |  |  |  |  |  |  | 
7 | CCOC(=O)C[C@H](N)C(=O)OCC.Cl [Compound 12] |  |  |  |  |  | could inhibit |  |  | could inhibit | stronger effects |  | E (E represented that the inhibition rate was 1% to 10%) | D (D represented that the inhibition rate was 10% to 25%) | E (E represented that the inhibition rate was 1% to 10%) | D (D represented that the inhibition rate was 10% to 25%) | C (C represented that the inhibition rate was 25% to 50%) | C (C represented that the inhibition rate was 25% to 50%) | E (E represented that the inhibition rate was 1% to 10%)
